ChEMBL document CHEMBL4765385, “Synthesis and biological evaluation of β-lapachone-monastrol hybrids as potential anticancer agents” (Eur J Med Chem, 2020)

How the values were obtained:
L02 = assay: Cytotoxicity against human L02 cells measured after 48 hrs by MTT assay; assay type: cell-based; conditions: L02, 48 h
NCI-H596 = assay: Antiproliferative activity against human NCI-H596 cells measured after 48 hrs by MTT assay; assay type: functional, cell-based; conditions: NCI-H596, 48 h
A549 [1] = assay: cells; conditions: Homo sapiens, A549, 48 h
[2] = molecular target: NAD(P)H dehydrogenase [quinone] 1 (Homo sapiens, UniProt P15559); assay: Substrate activity at recombinant human C-terminal His-tagged NQO1 (1 to 274 residues) expressed in Escherichia coli assessed as metabolic rate by measuring NADPH oxidation per micromol protein at 10 mmol/L measured at 5 secs interval for 1 min by UV-Visible Spectrophotometric method; assay type: ADME
HepG2 = assay: Antiproliferative activity against human HepG2 cells measured after 48 hrs by MTT assay; conditions: HepG2, 48 h
A549 [3] = assay: Antiproliferative activity against human A549 cells measured after 48 hrs in presence of NQO1 inhibitor dicoumarol by MTT assay; assay type: functional, cell-based; conditions: A549, 48 h
in vitro = conditions: human, L02 cells and A549 cells

Row | Compound | IC50 (L02) | IC50 (NCI-H596) | IC50 (A549 [1]) | Drug metabolism [2] | IC50 (HepG2) | IC50 (A549 [3]) | selectivity ratio (in vitro)
1 | O=C1C(=O)c2ccccc2C2=C1C(c1cc(O)ccc1Br)NC(=S)N2 (configuration not stated) | 1510 nM | 1610 nM | 480 nM | 1083 micromol/min/micromol protein | 1310 nM | 1550 nM | 3.15
2 | COc1ccc2c(c1)C1=C(C(=O)C2=O)C(c2cccc(O)c2)NC(=S)N1 (configuration not stated) | 1750 nM | 2200 nM | 300 nM | 997 micromol/min/micromol protein | 1570 nM | 1190 nM | 5.83
3 | COc1ccc2c(c1)C1=C(C(=O)C2=O)C(c2cc(C)cc(O)c2)NC(=S)N1 (configuration not stated) | 1860 nM | 2520 nM | 320 nM | 1427 micromol/min/micromol protein | 1700 nM | 1500 nM | 5.81
4 | O=C1C(=O)c2cccc(Br)c2C2=C1C(c1cccc(O)c1)NC(=S)N2 (configuration not stated) | 1660 nM | 1980 nM | 1940 nM | 2012 micromol/min/micromol protein | 2890 nM | 2020 nM | 0.86
5 | O=C1C(=O)c2ccccc2C2=C1C(c1cc(O)cc(Br)c1)NC(=S)N2 (configuration not stated) | 3050 nM | 7600 nM | 2420 nM | 852 micromol/min/micromol protein | 3200 nM | 3000 nM | 1.26
6 | O=C1C(=O)c2ccc(Cl)cc2C2=C1C(c1cccc(O)c1)NC(=S)N2 (configuration not stated) | 1680 nM | 1560 nM | 950 nM | 2398 micromol/min/micromol protein | 1380 nM | 1260 nM | 1.77
7 | O=C1C(=O)c2ccccc2C2=C1C(c1ccc(Cl)c(O)c1)NC(=S)N2 (configuration not stated) | 1580 nM | 1810 nM | 640 nM | 734 micromol/min/micromol protein | 1580 nM | 1410 nM | 2.47
8 | O=C1C(=O)c2ccccc2C2=C1C(c1cccc(O)c1Cl)NC(=S)N2 (configuration not stated) | 1640 nM | 3090 nM | 1020 nM | 1273 micromol/min/micromol protein | 1400 nM | 1330 nM | 1.61
9 | CCOC(=O)C1=C(C)NC(=S)NC1c1cccc(O)c1 (configuration not stated) [MONASTROL] |  |  |  | Metabolite_Notdetected |  |  | 
